Measured values as given in patent US20230087118A1, “IMIDAZO[1,2-a][sequence] DERIVATIVES AND THEIR USE IN THE TREATMENT OF DISEASE” (priority 2019, published 2023).
Where a name gives a salt, the structure may show the parent alone. Read-outs that look alike come from different tables or passages of the source.

Target: T1, IRAK4 (Homo sapiens, UniProt Q9NWZ3)
T1 sequence (Q9NWZ3 1-460): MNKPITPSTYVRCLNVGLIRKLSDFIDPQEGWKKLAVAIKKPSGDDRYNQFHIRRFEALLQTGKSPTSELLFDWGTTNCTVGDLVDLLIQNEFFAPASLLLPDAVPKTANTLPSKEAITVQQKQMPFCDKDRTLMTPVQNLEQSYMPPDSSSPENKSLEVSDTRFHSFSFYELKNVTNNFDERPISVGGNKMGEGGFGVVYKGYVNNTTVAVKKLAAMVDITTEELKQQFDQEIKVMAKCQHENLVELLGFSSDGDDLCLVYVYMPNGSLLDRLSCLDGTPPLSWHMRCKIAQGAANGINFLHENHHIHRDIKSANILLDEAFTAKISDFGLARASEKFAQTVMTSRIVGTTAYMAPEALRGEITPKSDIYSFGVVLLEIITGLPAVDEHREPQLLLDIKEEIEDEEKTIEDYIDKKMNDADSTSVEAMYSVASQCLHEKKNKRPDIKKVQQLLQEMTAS
Experiment: biochemical

[1] = IRAK4 Biochemical Assay (1 mM ATP, 2 h) IC50 (μM), 1 mM ATP, 2 h, 100 pM IRAK4

SMILES	IC50	IC50 [1]
COc1cccc(NC(=O)c2cn3cc(C4CC4)nc3cc2OC2CCCC2)n1 [Example 465, 7-(Cyclopentyloxy)-2-cyclopropyl-N-(6-methoxypyridin-2-yl)imidazo[1,2-a]pyridine-6-carboxamide]	0.0079 µM	
CC(C)Oc1cc2nc(C34COC(C)(C3)C4)cn2cc1C(=O)Nc1cccc(C(F)F)n1 [Example 96, N-(6-(difluoromethyl)pyridin-2-yl)-7-isopropoxy-2-(1-methyl-2-oxabicyclo[2.1.1]hexan-4-yl)imidazo[1,2-a]pyridine-6-carboxamide]		0.0002 µM
CC(C)Oc1cc2nc(C34CC(C3)C4)cn2cc1C(=O)Nc1cccc(C(F)F)n1 [Example 215]	0.0013 µM	
Cn1cccc(NC(=O)c2cn3cc(C4CC4)nc3c(OCCF)n2)c1=O [Example 637, 2-Cyclopropyl-8-(2-fluoroethoxy)-N-(1-methyl-2-oxo-1,2-dihydropyridin-3-yl)imidazo[1,2-a]pyrazine-6-carboxamide trifluoroacetate]		0.0445 µM
CC(C)Oc1cc2nc(C34COC(C)(C3)C4)cn2cc1C(=O)Nc1cccnc1OC(F)F [Example 222]	0.0081 µM	
COc1nc(C(=O)Nc2cccc(C(F)(F)F)n2)cn2cc(C[C@@H]3CCOC3)nc12 (single isomer, unassigned) [Example 70]	0.0169 µM	
O=C(Nc1cccc(C(F)F)n1)c1cn2cc(C3CC3)nc2cc1OC1CCC1 [Example 474, 7-Cyclobutoxy-2-cyclopropyl-N-(6-(difluoromethyl)pyridin-2-yl)imidazo[1,2-a]pyridine-6-carboxamide]	0.0007 µM	
CC(C)Oc1nc2nc(C34COC(C)(C3)C4)cn2cc1C(=O)Nc1cccc(OC(F)(F)F)n1 [Example 412, 7-Isopropoxy-2-(1-methyl-2-oxabicyclo[2.1.1]hexan-4-yl)-N-(6-(trifluoromethoxy)pyridin-2-yl)imidazo[1,2-a]pyrimidine-6-carboxamide]	0.0012 µM	
CC(C)Oc1cc2nc([C@@]34CC[C@@](C)(C3)OC4)cn2cc1C(=O)Nc1cccc(C(F)F)n1 (single isomer, unassigned) [Example 609]	0.0001 µM	
CC(C)Oc1cc2nc(C34CCC(C)(C3)OC4)cn2cc1C(=O)Nc1cccc(F)c1F (stereo not shown) [Example 515, N-(2,3-difluorophenyl)-7-isopropoxy-2-(1-methyl-2-oxabicyclo[2.2.1]heptan-4-yl)imidazo[1,2-a]pyridine-6-carboxamide]	0.0014 µM	
CC(C)Oc1cc2nc(C34COC(CF)(C3)C4)cn2cc1C(=O)Nc1cccc(C(F)F)n1 [Example 289, N-(6-(difluoromethyl)pyridin-2-yl)-2-(1-(fluoromethyl)-2-oxabicyclo[2.1.1]hexan-4-yl)-7-isopropoxyimidazo[1,2-a]pyridine-6-carboxamide]		0.0002 µM
C[C@]12CC[C@](c3cn4cc(C(=O)Nc5cccc(C(F)F)n5)cc(OC(F)F)c4n3)(CO1)C2 (single isomer, unassigned) [Example 585]	0.0115 µM	
CC12CCC(c3cn4cc(C(=O)Nc5ccn(CC#N)n5)c(OC5CCC5)cc4n3)(CO1)C2 (stereo not shown) [Example 532, N-(1-(cyanomethyl)-1H-pyrazol-3-yl)-7-cyclobutoxy-2-(1-methyl-2-oxabicyclo[2.2.1]heptan-4-yl)imidazo[1,2-a]pyridine-6-carboxamide]	0.0029 µM	
Cc1cnc2c(NC(=O)c3cn4cc([C@]56CO[C@H](CCO5)C6)nc4cc3OC(C)C)cnn2c1 (single isomer, unassigned) [Example 646]	0.0008 µM	
CC(C)Oc1nc2nc(C34COC(C)(C3)C4)cn2cc1C(=O)Nc1cnn2cc(F)cnc12 [Example 398, N-(6-fluoropyrazolo[1,5-a]pyrimidin-3-yl)-7-isopropoxy-2-(1-methyl-2-oxabicyclo[2.1.1]hexan-4-yl)imidazo[1,2-a]pyrimidine-6-carboxamide]		0.0002 µM
C[C@@H](Oc1cc2nc(C34COC(C)(C3)C4)cn2cc1C(=O)Nc1cccc(C(F)F)n1)C(F)(F)F (single isomer, unassigned) [Example 618]	0.0006 µM	
CC(C)COc1cc2nc(C34COC(C)(C3)C4)cn2cc1C(=O)Nc1cccn(C(F)F)c1=O [Example 453, N-(1-(difluoromethyl)-2-oxo-1,2-dihydropyridin-3-yl)-7-isobutoxy-2-(1-methyl-2-oxabicyclo[2.1.1]hexan-4-yl)imidazo[1,2-a]pyridine-6-carboxamide]	0.0007 µM	
Cc1cnc2c(NC(=O)c3cn4cc([C@@]56CC[C@@](C)(C5)OC6)nc4nc3OC(C)C)cnn2c1 (single isomer, unassigned) [Example 616]	0.0002 µM	
CC(C)Oc1cc2nc(C34COC(C)(C3)C4)cn2cc1C(=O)Nc1cc(F)n(C)n1 [Example 641, N-(5-fluoro-1-methyl-1H-pyrazol-3-yl)-7-isopropoxy-2-(1-methyl-2-oxabicyclo[2.1.1]hexan-4-yl)imidazo[1,2-a]pyridine-6-carboxamide trifluoroacetate]		0.0062 µM

SMILES	IC50	IC50 [1]
Cc1cnc2c(NC(=O)c3cn4cc(C56COC(CF)(C5)C6)nc4nc3OC(C)C)cnn2c1 [Example 434]	0.0005 µM	
CC(C)Oc1c(C(=O)Nc2cccc(C(F)F)n2)cn2cc(C34COC(C)(C3)C4)nc2c1F [Example 217]	0.0017 µM	
COc1cc2nc(C3CCOCC3)cn2cc1C(=O)Nc1ccn(C2CCCC2)n1 [Example 191]	0.27 µM	
CC12CCC(c3cn4cc(C(=O)Nc5cccn(C(F)F)c5=O)c(OC5CCC5)cc4n3)(CO1)C2 (stereo not shown) [Example 538, 7-Cyclobutoxy-N-(1-(difluoromethyl)-2-oxo-1,2-dihydropyridin-3-yl)-2-(1-methyl-2-oxabicyclo[2.2.1]heptan-4-yl)imidazo[1,2-a]pyridine-6-carboxamide]	0.0003 µM	
CCOc1nc(C(=O)Nc2cc(F)cnc2OC)cn2cc([C@@H]3CCCOC3)nc12 (single isomer, unassigned) [Example 594]	0.0056 µM	
Cn1cccc(NC(=O)c2cn3cc(C45CCC(C)(C4)OC5)nc3cc2OC2CCC2)c1=O (stereo not shown) [Example 422, 7-Cyclobutoxy-N-(1-methyl-2-oxo-1,2-dihydropyridin-3-yl)-2-(1-methyl-2-oxabicyclo[2.2.1]heptan-4-yl)imidazo[1,2-a]pyridine-6-carboxamide]	0.0005 µM	
CC[C@H](C)Oc1cc2nc(C34COC(C)(C3)C4)cn2cc1C(=O)Nc1cnn2cc(C)cnc12 [Example 559]	0.0007 µM	
CC(C)Oc1cc2nc(C34COC(C)(C3)C4)cn2cc1C(=O)Nc1cncn(C)c1=O [Example 261, 7-Isopropoxy-N-(1-methyl-6-oxo-1,6-dihydropyrimidin-5-yl)-2-(1-methyl-2-oxabicyclo[2.1.1]hexan-4-yl)imidazo[1,2-a]pyridine-6-carboxamide 2,2,2-trifluoroacetate]		0.0047 µM
CC(C)Oc1cc2nc(C34CC(C#N)(C3)C4)cn2cc1C(=O)Nc1ccn(C)n1 [Example 404, 2-(3-Cyanobicyclo[1.1.1]pentan-1-yl)-7-isopropoxy-N-(1-methyl-1H-pyrazol-3-yl)imidazo[1,2-a]pyridine-6-carboxamide]	0.0077 µM	
COc1ccc2ncc(NC(=O)c3cn4cc(C56COC(C)(C5)C6)nc4nc3OC(C)C)n2n1 [Example 308, 7-Isopropoxy-N-(6-methoxyimidazo[1,2-b]pyridazin-3-yl)-2-(1-methyl-2-oxabicyclo[2.1.1]hexan-4-yl)imidazo[1,2-a]pyrimidine-6-carboxamide trifluoroacetate]		0.002 µM
Cn1cccc(NC(=O)c2cn3cc(C45CCC(C)(CC4)OC5)nc3cc2OC2CCC2)c1=O [Example 421, 7-Cyclobutoxy-N-(1-methyl-2-oxo-1,2-dihydropyridin-3-yl)-2-(1-methyl-2-oxabicyclo[2.2.2]octan-4-yl)imidazo[1,2-a]pyridine-6-carboxamide]	0.0002 µM	
CC12CCC(c3cn4cc(C(=O)Nc5cnc6cccnn56)c(OC5CCC5)cc4n3)(CO1)C2 (stereo not shown) [Example 649, 7-cyclobutoxy-N-(imidazo[1,2-b]pyridazin-3-yl)-2-(1-methyl-2-oxabicyclo[2.2.1]heptan-4-yl)imidazo[1,2-a]pyridine-6-carboxamide]	0.0002 µM	
CC(C)(C)c1cn2cc(C(=O)Nc3cnn4cccnc34)c(OC3CCC3)cc2n1 [Example 266, 2-(tert-Butyl)-7-cyclobutoxy-N-(pyrazolo[1,5-a]pyrimidin-3-yl)imidazo[1,2-a]pyridine-6-carboxamide trifluoroacetate]		0.0013 µM
COc1cc2nc(C3CCOCC3)cn2cc1C(=O)Nc1cccc(C)c1Cl [Example 115]	0.0061 µM	
CCOc1nc(C(=O)Nc2cccc(C(F)F)n2)cn2cc(C3CCCOC3)nc12 (stereo not shown) [Example 223]	0.0022 µM	
CCO[C@H]1C[C@@H](Oc2cc3nc(C4CCOCC4)cn3cc2C(=O)Nc2cccc(C(F)F)n2)C1 [Example 436, N-(6-(difluoromethyl)pyridin-2-yl)-7-((1s,3s)-3-ethoxycyclobutoxy)-2-(tetrahydro-2H-pyran-4-yl)imidazo[1,2-a]pyridine-6-carboxamide]	0.0008 µM	
O=C(Nc1cccc(C(F)F)n1)c1cn2cc(C3CCOCC3)nc2cn1 [Example 83]	0.264 µM	
CC(C)COc1cc2nc(C3CC3)cn2cc1C(=O)Nc1cccc(C(F)F)n1 [Example 466, 2-Cyclopropyl-N-(6-(difluoromethyl)pyridin-2-yl)-7-isobutoxyimidazo[1,2-a]pyridine-6-carboxamide]	0.0057 µM	
